From patent US9115151B2, “Substituted 2,10-dihydro-9-oxa-1,2,4A-triazaphenanthren-3-ones and uses thereof” (AbbVie Inc., priority 2012, dated 2015)

Key:
[1] = molecular target: T1, PKCα (Homo sapiens, UniProt P17252); experiment: In vitro enzyme assay (time-resolved fluorescence kinase assay), PKCα, 100 μM ATP; type: biochemical; details: 100 μM ATP; read-out: PKCα enzyme IC50
T1 construct: His6; purchased Millipore; host or cells: baculovirus in Sf21 cells
Method in brief: (§1)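 Read-out was time-resolved fluorescence, corrected for a minus-enzyme blank and converted to percent activity relative to enzyme without drug. They were stopped with EDTA.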

[2] = molecular target: T2, PKCθ (Homo sapiens, UniProt Q04759); experiment: In vitro enzyme assay (time-resolved fluorescence kinase assay), PKCθ, 100 μM ATP; type: biochemical
T2 construct: His6; purchased Millipore; host or cells: baculovirus in Sf21 cells
T2 sequence (Q04759 whole entry): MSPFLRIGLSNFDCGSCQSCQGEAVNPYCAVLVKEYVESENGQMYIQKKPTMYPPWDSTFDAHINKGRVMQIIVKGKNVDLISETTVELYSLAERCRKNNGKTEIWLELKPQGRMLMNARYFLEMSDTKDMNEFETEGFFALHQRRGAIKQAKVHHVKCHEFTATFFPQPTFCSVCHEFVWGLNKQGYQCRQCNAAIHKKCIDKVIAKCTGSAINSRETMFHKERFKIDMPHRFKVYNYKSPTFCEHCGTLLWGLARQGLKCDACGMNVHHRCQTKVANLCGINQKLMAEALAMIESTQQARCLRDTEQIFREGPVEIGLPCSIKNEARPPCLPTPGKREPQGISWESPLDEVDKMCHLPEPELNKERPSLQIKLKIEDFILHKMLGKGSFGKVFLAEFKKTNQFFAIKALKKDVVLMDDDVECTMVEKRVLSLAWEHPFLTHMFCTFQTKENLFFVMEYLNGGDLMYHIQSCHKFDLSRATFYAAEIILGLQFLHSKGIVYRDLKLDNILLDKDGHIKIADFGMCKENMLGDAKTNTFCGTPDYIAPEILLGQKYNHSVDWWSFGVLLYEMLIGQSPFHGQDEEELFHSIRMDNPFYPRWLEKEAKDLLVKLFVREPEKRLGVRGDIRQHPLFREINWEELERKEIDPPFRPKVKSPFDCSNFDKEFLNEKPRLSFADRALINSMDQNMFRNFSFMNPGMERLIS
Method in brief: as §1

[3] = system: CD3/CD28 induced IL-2 in human T-Blasts; experiment: T-Blasts CD3/CD28 induced IL-2 assay; type: cell-based; details: read-out: CD3/CD28-stimulated IL2 in T-blasts EC50
Method in brief: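 PHA-generated human T-blasts, 2×10^5 per well, preincubated 30 min with 8-point 1/3 compound dilutions in duplicate, then stimulated with anti-CD3+anti-CD28 (5 μg/mL final) for 24 h at 37° C. Supernatant IL-2 measured; MTT toxicity run on remaining cells.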

Row | SMILES | IC50 [1] [nM] | IC50 [2] [nM] | EC50 [3] [nM]
1 | CC1C(=O)NN=C2COc3cc(-c4ccoc4)c(N(C)C4(C)CN(C)C4)cc3N21 (stereo not drawn) [Example 173] | 1000 to 10000 | < 250 | 250 to 1000
2 | CC1C(=O)NN=C2COc3cc(-c4ccc(C#N)cc4)c(N(C)C4(C)CN(C)C4)cc3N21 (stereo not drawn) [Example 174] | 1000 to 10000 | < 250 | 250 to 1000
3 | C[C@@H]1C(=O)NN=C2COc3cc(-c4ccccc4CO)c(N(C)C4(C)CN(C)C4)cc3N21 [Example 176] | 250 to 1000 | < 250 | < 250
4 | C[C@@H]1C(=O)NN=C2COc3cc(-c4ccccc4Cl)c(N(C)C4(C)CN(C)C4)cc3N21 [Example 177] | 250 to 1000 | < 250 | < 250
5 | C[C@@H]1C(=O)NN=C2COc3cc(-c4ccc(F)cc4F)c(N(C)C4(C)CN(C)C4)cc3N21 [Example 178] | 250 to 1000 | < 250 | < 250
6 | C[C@@H]1C(=O)NN=C2COc3cc(-c4cccc(CO)c4)c(N(C)C4(C)CN(C)C4)cc3N21 [Example 179] | 250 to 1000 | < 250 | < 250
7 | C[C@@H]1C(=O)NN=C2COc3cc(-c4ccccc4CCO)c(N(C)C4(C)CN(C)C4)cc3N21 [Example 180] | 1000 to 10000 | < 250 | < 250
8 | COCc1ccccc1-c1cc2c(cc1N(C)C1(C)CN(C)C1)N1C(=NNC(=O)[C@H]1C)CO2 [Example 181] | 1000 to 10000 | < 250 | 250 to 1000
9 | C[C@@H]1C(=O)NN=C2COc3cc(C4=CCC(F)(F)CC4)c(N(C)C4(C)CN(C)C4)cc3N21 [Example 182] | 1000 to 10000 | < 250 | 250 to 1000
10 | CC(=O)N1CC(C)(N(C)c2cc3c(cc2-c2ccccc2F)OCC2=NNC(=O)[C@@H](C)N23)C1 [Example 183, (R)-6-[(1-Acetyl-3-methyl-azetidin-3-yl)-methyl-amino]-7-(2-fluoro-phenyl)-4-methyl-2,10-dihydro-9-oxa-1,2,4a-triaza-phenanthren-3-one] | 1000 to 10000 | < 250 | 250 to 1000
11 | C[C@@H]1C(=O)NN=C2COc3cc(-c4ccccc4F)c(N(C)C4(C)CN(C(=O)CO)C4)cc3N21 [Example 184] | 1000 to 10000 | < 250 | 250 to 1000
12 | C[C@@H]1C(=O)NN=C2COc3cc(-c4ccccc4F)c(N(C)C4(C)CN(C(=O)CCN(C)C)C4)cc3N21 [Example 185] | 250 to 1000 | < 250 | < 250
13 | C[C@@H]1C(=O)NN=C2COc3cc(-c4ccccc4F)c(N(C)C4(C)CN(C(=O)C(F)(F)F)C4)cc3N21 [Example 186] | 1000 to 10000 | 250 to 1000 | 250 to 1000
14 | C[C@@H]1C(=O)NN=C2COc3cc(-c4ccccc4F)c(N(C)C4(C)CN(C(=O)CN(C)C)C4)cc3N21 [Example 187] | 1000 to 10000 | < 250 | 250 to 1000
15 | C[C@H](O)CN1CC(C)(N(C)c2cc3c(cc2-c2ccccc2F)OCC2=NNC(=O)[C@@H](C)N23)C1 [Example 188] | < 250 | < 250 | < 250
16 | C[C@@H]1C(=O)NN=C2COc3cc(-c4ccccc4F)c(N(C)C4(C)CN(C[C@@H](C)O)C4)cc3N21 [Example 189] | 250 to 1000 | < 250 | < 250
17 | C[C@@H]1C(=O)NN=C2COc3cc(-c4ccccc4F)c(N(C)C4(C)CN(CC(C)(C)O)C4)cc3N21 [Example 190] | 250 to 1000 | < 250 | < 250
18 | C[C@@H]1C(=O)NN=C2COc3cc(-c4ccccc4F)c(N(C)C4(C)CN(CCO)C4)cc3N21 [Example 191] | 250 to 1000 | < 250 | < 250
19 | COCCN1CC(C)(N(C)c2cc3c(cc2-c2ccccc2F)OCC2=NNC(=O)[C@@H](C)N23)C1 [Example 192] | 250 to 1000 | < 250 | < 250
20 | C[C@@H]1C(=O)NN=C2COc3cc(-c4ccccc4F)c(N(C)C4(C)CN(CCC(F)(F)F)C4)cc3N21 [Example 193] | 1000 to 10000 | < 250 | 250 to 1000
21 | C[C@@H]1C(=O)NN=C2COc3cc(-c4ccccc4F)c(N(C)C4(C)CN(C5COC5)C4)cc3N21 [Example 194] | 250 to 1000 | < 250 | 250 to 1000
22 | C[C@@H]1C(=O)NN=C2COc3cc(-c4ccccc4CO)c(N(C)C4(C)CN(CCO)C4)cc3N21 [Example 195] | 1000 to 10000 | < 250 | < 250
23 | CC1C(=O)NN=C2COc3cc(-c4ccccc4)c(N(C)C4(C)CN(C5COC5)C4)cc3N21 (stereo not drawn) [Example 196] | 1000 to 10000 | < 250 | 1000 to 10000
24 | CC(C)c1cc2c(cc1[C@@H]1CCNC[C@@H]1C)N1C(=NNC(=O)[C@H]1C)CO2 [Example 202] | 1000 to 10000 | < 250 | < 250
25 | C[C@@H]1CNCC[C@@H]1c1cc2c(cc1-c1ccccc1CO)OCC1=NNC(=O)[C@@H](C)N12 [Example 204] | 1000 to 10000 | < 250 | 250 to 1000
26 | C[C@@H]1CN(C)CC[C@@H]1c1cc2c(cc1-c1ccccc1CO)OCC1=NNC(=O)[C@@H](C)N12 [Example 205] | 250 to 1000 | < 250 | < 250
27 | C[C@@H]1C(=O)NN=C2COc3cc(-c4ccccc4F)c([C@@H]4CCN(CCO)C[C@@H]4C)cc3N21 [Example 206] | 1000 to 10000 | < 250 | < 250
28 | C[C@@H]1CN(CCO)CC[C@@H]1c1cc2c(cc1-c1ccccc1F)OCC1=NNC(=O)[C@@H](C)N12 [Example 207] | 1000 to 10000 | < 250 | 250 to 1000
29 | CC(C)c1cc2c(cc1C1CCNCC1)N1C(=NNC(=O)[C@H]1C)CO2 [Example 208] | 1000 to 10000 | < 250 | < 250
30 | C[C@@H]1C(=O)NN=C2COc3cc(-c4ccccc4F)c(N4[C@@H]5CC[C@H]4CNC5)cc3N21 [Example 228] | 250 to 1000 | < 250 | 250 to 1000

Further lines, results first:

Row | IC50 [1] [nM] | IC50 [2] [nM] | EC50 [3] [nM] | SMILES
31 | 1000 to 10000 | < 250 | < 250 | C[C@@H]1C(=O)NN=C2COc3cc(-c4ccccc4Cl)c(C4CCNCC4)cc3N21 [Example 210]
32 | 1000 to 10000 | < 250 | 250 to 1000 | C[C@@H]1C(=O)NN=C2COc3cc(C4=CCC(F)(F)CC4)c(C4CCNCC4)cc3N21 [Example 211]
33 | 1000 to 10000 | < 250 | < 250 | C[C@@H]1C(=O)NN=C2COc3cc(-c4c(F)cccc4F)c(C4CCNCC4)cc3N21 [Example 213]
34 | 1000 to 10000 | < 250 | < 250 | C[C@@H]1C(=O)NN=C2COc3cc(-c4ccccc4F)c([C@H]4CCNC4)cc3N21 [Example 214]
35 | 1000 to 10000 | < 250 | < 250 | C[C@@H]1C(=O)NN=C2COc3cc(-c4ccccc4F)c([C@@H]4CCNC4)cc3N21 [Example 215]
36 | 1000 to 10000 | < 250 | 250 to 1000 | C[C@@H]1C(=O)NN=C2COc3cc(-c4ccccc4F)c([C@H]4CCCNC4)cc3N21 [Example 216]
37 | 1000 to 10000 | < 250 | 250 to 1000 | C[C@@H]1C(=O)NN=C2COc3cc(-c4ccccc4F)c([C@H]4CCCNCC4)cc3N21 [Example 217]
38 | 1000 to 10000 | < 250 | 250 to 1000 | C[C@@H]1C(=O)NN=C2COc3cc(-c4ccccc4F)c([C@@H]4CCCNCC4)cc3N21 [Example 218]
39 | 1000 to 10000 | < 250 | < 250 | CC(C)c1cc2c(cc1C1CCN(C)CC1)N1C(=NNC(=O)[C@H]1C)CO2 [Example 219]
40 | 1000 to 10000 | < 250 | 250 to 1000 | C[C@@H]1C(=O)NN=C2COc3cc(-c4ccccc4F)c(N4CCNCC4)cc3N21 [Example 222, (R)-7-(2-Fluoro-phenyl)-4-methyl-6-piperazin-1-yl-2,10-dihydro-9-oxa-1,2,4a-triaza-phenanthren-3-one]
41 | 250 to 1000 | < 250 | < 250 | C[C@@H]1CNCCN1c1cc2c(cc1-c1ccccc1F)OCC1=NNC(=O)[C@@H](C)N12 [Example 223]
42 | 250 to 1000 | < 250 | < 250 | C[C@@H]1C(=O)NN=C2COc3cc(-c4ccccc4F)c(N4CCNC[C@@H]4C)cc3N21 [Example 224]
43 | 250 to 1000 | < 250 | < 250 | C[C@@H]1C(=O)NN=C2COc3cc(-c4ccccc4F)c(N4CCN[C@@H](C)C4)cc3N21 [Example 225]
44 | 250 to 1000 | < 250 | 250 to 1000 | CC[C@@H]1CNCCN1c1cc2c(cc1-c1ccccc1F)OCC1=NNC(=O)[C@@H](C)N12 [Example 226]
45 | 1000 to 10000 | < 250 | 250 to 1000 | CC[C@H]1CNCCN1c1cc2c(cc1-c1ccccc1F)OCC1=NNC(=O)[C@@H](C)N12 [Example 227]
46 | 250 to 1000 | < 250 | < 250 | C[C@@H]1CN(C)CCN1c1cc2c(cc1-c1ccccc1F)OCC1=NNC(=O)[C@@H](C)N12 [Example 230]
47 | 250 to 1000 | < 250 | < 250 | C[C@@H]1C(=O)NN=C2COc3cc(-c4ccccc4F)c(N4CCN(C)C[C@@H]4C)cc3N21 [Example 231]
48 | 250 to 1000 | < 250 | < 250 | C[C@@H]1C(=O)NN=C2COc3cc(-c4ccccc4F)c(N4CCN(C)[C@@H](C)C4)cc3N21 [Example 232]
49 | 250 to 1000 | < 250 | < 250 | CC[C@@H]1CN(C)CCN1c1cc2c(cc1-c1ccccc1F)OCC1=NNC(=O)[C@@H](C)N12 [Example 233]
